Results as given in patent US20200131669A1, “CYCLIC PEPTIDE COMPOUND HAVING HIGH MEMBRANE PERMEABILITY, AND LIBRARY CONTAINING SAME” (Chugai Seiyaku Kabushiki Kaisha, priority 2017, published 2020).
Starred links: 1 amine or outer side, 2 acyl side, 3 side chain; linkers in the order of their positions; H or OH if unused. Positions of bridges follow the written chain, without caps; N, C: chain ends. Non-standard residues stand in square brackets, D forms with d. Residues, ends and D or L forms follow the SMILES beside them. *: point of attachment. X18 = CC(C(=O)[C@H](COC(C)(C)C)N[*:1])[C@@H](Cc1ccccc1)C(=O)[*:2]; X10 = O=C([C@H]1C[C@@H](N2CCC(F)(F)CC2)CN1[*:1])[*:2]; NMePhe(3-Cl) = CN[C@@H](Cc1cccc(Cl)c1)C(=O)O; hPhe(4-Cl) = N[C@@H](CCc1ccc(Cl)cc1)C(=O)O; X8 = O=C(CN(CCN1CCC(F)(F)CC1)[*:1])[*:2]; Ethyl(2-morpholino) = C1CN(CC*)CCO1; Gly(N-(CH2)2OEt) = CCOCCNCC(=O)O; Hyp = O=C(O)[C@@H]1C[C@@H](O)CN1; NMeF = CN[C@@H](Cc1ccccc1)C(=O)O; NMeGABA = CN(CCCC(=O)[*:2])[*:1]; NMeI = CC[C@H](C)[C@H](NC)C(=O)O; hPhe = N[C@@H](CCc1ccccc1)C(=O)O; NMeD = CN[C@@H](CC(=O)O)C(=O)O; NMeL = CN[C@@H](CC(C)C)C(=O)O; dNMeL = CN[C@H](CC(C)C)C(=O)O; Propyl(2R-OH) = C[C@@H](O)C*; dNMeAbu = CC[C@@H](NC)C(=O)O; NMeV = CN[C@H](C(=O)O)C(C)C; NMeAbu = CC[C@H](NC)C(=O)O; hSer = N[C@@H](CCO)C(=O)O; NMeA = CN[C@@H](C)C(=O)O; Piperidide = C1CCN(*)CC1; dNMeA = CN[C@H](C)C(=O)O; Abu = CC[C@H](N)C(=O)O; CH2CMe2OH = CC(C)(O)C*; NBuGly = CCCCNCC(=O)O; NPrGly = CCCNCC(=O)O; Sar = CNCC(=O)O; tBu = CC(C)(C)*; Propyl = CCC*

system: Caco-2 cells; assay: Caco-2 membrane permeability, improved method as used in the following Examples (96-well, 20 to 24 h preincubation); type: in vitro ADME; details: human, Caco-2, 180 min
Outline: (§1)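 Papp (cm/sec) was derived from LC/MS of basal samples collected 180 min after apical dosing in FaSSIF/HBSS pH 6.0 with 1% DMSO, against a basal HBSS pH 7.4 receiver containing 4% BSA. Three-week Caco-2 cultures were first preincubated with compound in DMEM+FaSSIF at 37 °C for 20–24 h.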

SMILES | Caco-2 [cm/s]
CCCCN1CC(=O)N(C)[C@@H](Cc2ccccc2)C(=O)N(C)[C@@H](CC(C)C)C(=O)N[C@@H](CC(C)C)C(=O)N(C)[C@@H](CC(C)C)C(=O)N[C@H](C(=O)N2CCCCC2)CC(=O)N(C)CC(=O)N(C)[C@@H](CC)C(=O)N[C@@H](C(C)C)C(=O)N(C)[C@@H](CC(C)C)C(=O)N[C@@H](COCCN2CCOCC2)C1=O [pd486] ([Sar][NMeAbu]V[NMeL]S(Ethyl(2-morpholino))[NBuGly][NMeF][NMeL]L[NMeL]D-Piperidide; lactam N-11) | 1.1e-06
CC(C)C[C@H]1C(=O)N[C@H](C(=O)N2CCCCC2)CC(=O)N[C@H](C)C(=O)N(C)[C@@H](CC(C)C)C(=O)N[C@@H](COC(C)(C)C)C(=O)N(C)[C@@H](C)C(=O)N(C)[C@@H](CC(C)C)C(=O)N(C)[C@@H](C)C(=O)N[C@@H]([C@@H](C)O)C(=O)N(C)[C@@H](Cc2ccccc2)C(=O)N[C@@H](CCc2ccccc2)C(=O)N1C [pd309] ([dA][NMeL]S(tBu)[NMeA][NMeL][NMeA]T[NMeF][hPhe][NMeL]D-Piperidide; lactam N-11) | 1.1e-06
CCCCN1CC(=O)N(C)[C@@H](CC(C)C)C(=O)N[C@H](C(=O)N2CCCCC2)CC(=O)N(C)[C@@H](CC)C(=O)N[C@H](CC(C)C)C(=O)N(C)[C@@H](CC(C)C)C(=O)N(C)[C@@H](Cc2ccccc2)C(=O)N[C@@H](COCCN2CCOCC2)C(=O)N(C)[C@H](CC)C(=O)N(C)[C@@H](CC(C)C)C(=O)N[C@@H]([C@@H](C)O)C1=O [pd482] ([NMeAbu][dL][NMeL][NMeF]S(Ethyl(2-morpholino))[dNMeAbu][NMeL]T[NBuGly][NMeL]D-Piperidide; lactam N-11) | 1.1e-06
CC(C)C[C@H]1C(=O)N[C@H](C(=O)N2CCCCC2)CC(=O)N[C@H](C)C(=O)N2C[C@H](N3CCC(F)(F)CC3)C[C@@H]2C(=O)N[C@@H](COC(C)(C)C)C(=O)N(C)[C@@H](CC(C)C)C(=O)N(C)[C@@H](CC(C)C)C(=O)N(C)[C@@H](CC(C)C)C(=O)N[C@@H]([C@@H](C)O)C(=O)N(C)[C@@H](Cc2ccccc2)C(=O)N[C@@H](Cc2ccccc2)C(=O)N1C [pd457] ([dA][X10]S(tBu)[NMeL][NMeL][NMeL]T[NMeF]F[NMeL]D-Piperidide; lactam N-11) | 1.1e-06
CC(C)C[C@H]1C(=O)N[C@@H](COC(C)(C)C)C(=O)N(C)[C@@H](Cc2ccccc2)C(=O)N(C)[C@@H](C(C)C)C(=O)N[C@H](C(=O)N2CCCCC2)CC(=O)N[C@H](C(C)C)C(=O)N(C)[C@@H](C)C(=O)N[C@@H](CCc2ccc(Cl)cc2)C(=O)N(C)[C@@H](CC(C)C)C(=O)N[C@@H]([C@@H](C)O)C(=O)N(C)CC(=O)N1C [pd359] ([dV][NMeA][hPhe(4-Cl)][NMeL]T[Sar][NMeL]S(tBu)[NMeF][NMeV]D-Piperidide; lactam N-11) | 1.1e-06
CCCCN1CC(=O)N(C)[C@@H](Cc2ccccc2)C(=O)N(C)[C@@H](CC(C)C)C(=O)N[C@@H](CC(C)C)C(=O)N(C)[C@@H](CC(C)C)C(=O)N[C@H](C(=O)N2CCCCC2)CC(=O)N(C)CC(=O)N(C)[C@@H](Cc2ccccc2)C(=O)N[C@@H](CCOCC)C(=O)N(C)[C@@H](CC(C)C)C(=O)N[C@@H]([C@@H](C)O)C1=O [pd445] ([Sar][NMeF][hSer](Et)[NMeL]T[NBuGly][NMeF][NMeL]L[NMeL]D-Piperidide; lactam N-11) | 1.1e-06

system: not listed separately; assay: as above; type: in vitro ADME; details: human, Caco-2, Caco-2
Outline: as §1

SMILES | Papp A→B at 180 min [×10⁻⁶ cm/s]
CC(C)C[C@@H]1NC(=O)[C@H](Cc2ccccc2)N(C)C(=O)[C@H](CC(C)C)N(C)C(=O)[C@H](CC(C)C)NC(=O)[C@H](C)N(C)C(=O)C[C@@H](C(=O)N2CCCCC2)NC(=O)[C@H](CC(C)C)N(C)C(=O)CN(C)C(=O)[C@H]([C@@H](C)O)NC(=O)CN(CCN2CCC(F)(F)CC2)C(=O)[C@H](Cc2ccccc2)N(C)C1=O [pd456] ([NMeA]L[NMeL][NMeF]L[NMeF][X8]T[Sar][NMeL]D-Piperidide; lactam N-11) | 5
CCO[C@@H]1C[C@H]2C(=O)N(C)[C@@H](CC(C)C)C(=O)N[C@@H]([C@@H](C)CC)C(=O)N(C)[C@@H](CC(C)C)C(=O)N[C@@H](CC(C)C)C(=O)N[C@H](C(=O)N3CCCCC3)CC(=O)N(C)[C@H](C)C(=O)N(C)[C@@H](CC(C)C)C(=O)N[C@@H](CC(C)C)C(=O)N(C)[C@@H](CC(C)C)C(=O)N[C@@H]([C@@H](C)O)C(=O)N2C1 [pd371] ([dNMeA][NMeL]L[NMeL]T[Hyp](Et)[NMeL]I[NMeL]LD-Piperidide; lactam N-11) | 3.4
CCCN1CC(=O)N(C)[C@@H](Cc2cccc(Cl)c2)C(=O)N(C)[C@@H](CC(C)C)C(=O)N[C@@H](COC(C)(C)C)C(=O)N(C)[C@@H](CC(C)C)C(=O)N[C@H](C(=O)N2CCCCC2)CC(=O)N(C)CC(=O)N(C)[C@@H](Cc2ccccc2)C(=O)N[C@@H](COCC(C)(C)O)C(=O)N(C)[C@@H](CC(C)C)C(=O)N[C@@H]([C@@H](C)O)C1=O [pd430] ([Sar][NMeF]S(CH2CMe2OH)[NMeL]T[NPrGly][NMePhe(3-Cl)][NMeL]S(tBu)[NMeL]D-Piperidide; lactam N-11) | 1.3
CCCOC[C@@H]1NC(=O)[C@H](CC(C)C)N(C)C(=O)[C@H](Cc2ccccc2)N(C)C(=O)CN(C)C(=O)[C@H]([C@@H](C)O)NC(=O)[C@H](CC(C)C)N(C)C(=O)[C@H]([C@@H](C)CC)NC(=O)[C@H](Cc2ccccc2)N(C)C(=O)CN(C)C(=O)C[C@@H](C(=O)N2CCCCC2)NC(=O)[C@H](CC(C)C)N(C)C1=O [pd330] ([Sar][NMeF]I[NMeL]T[Sar][NMeF][NMeL]S(Propyl)[NMeL]D-Piperidide; lactam N-11) | 1.8
CCCCN1CC(=O)N(C)[C@@H](CC(C)C)C(=O)N[C@H](C(=O)N2CCCCC2)CC(=O)N(C)[C@@H](CC)C(=O)N[C@@H](CC(C)C)C(=O)N(C)[C@@H](CC(C)C)C(=O)N(C)[C@@H](Cc2ccccc2)C(=O)N[C@@H](CC)C(=O)N(C)[C@@H](Cc2ccccc2)C(=O)N(CCOCC)CC(=O)N[C@@H]([C@@H](C)O)C1=O [pd419] ([NMeAbu]L[NMeL][NMeF][Abu][NMeF][Gly(N-(CH2)2OEt)]T[NBuGly][NMeL]D-Piperidide; lactam N-11) | 2.3
CC(C)C[C@H]1C(=O)N[C@H](C(=O)N2CCCCC2)CC(=O)N(C)CCCC(=O)N(C)[C@@H](CC(C)C)C(=O)N[C@@H](CCc2ccccc2)C(=O)N(C)[C@@H](CC(C)C)C(=O)N(C)[C@@H](Cc2ccccc2)C(=O)N[C@@H](COC(C)(C)C)C(=O)N(C)[C@@H](CC(C)C)C(=O)N[C@@H]([C@@H](C)O)C(=O)N(C)CC(=O)N1C [pd317] ([NMeGABA][NMeL][hPhe][NMeL][NMeF]S(tBu)[NMeL]T[Sar][NMeL]D-Piperidide; lactam N-11) | 1.8
CC[C@H](C)[C@H]1C(=O)N[C@@H](C(C)C)C(=O)N(C)CC(=O)N(C)[C@@H](CC(C)C)C(=O)N[C@H](C(=O)N2CCCCC2)CC(=O)N(C)[C@@H](C)C(=O)N[C@@H](COC[C@@H](C)O)C(=O)N(C)[C@H](CC(C)C)C(=O)N(C)[C@@H](Cc2ccccc2)C(=O)N[C@@H](CC(C)C)C(=O)N(C)[C@@H](Cc2ccccc2)C(=O)N1C [pd495] ([NMeA]S(Propyl(2R-OH))[dNMeL][NMeF]L[NMeF][NMeI]V[Sar][NMeL]D-Piperidide; lactam N-11) | 3.7

same assay, conditions: human, Caco-2, Caco-2 (cm/sec)

SMILES | Papp A→B at 180 min [×10⁻⁶ cm/s]
CC(C)C[C@@H]1NC(=O)[C@H](Cc2ccccc2)N(C)C(=O)[C@H](C(C)C)N(C)C(=O)C[C@@H](C(=O)N2CCCCC2)NC(=O)[C@H]([C@@H](C)O)NC(=O)[C@H](Cc2ccccc2)N(C)C(=O)[C@H](Cc2ccccc2)NC(=O)[C@H](Cc2ccccc2)N(C)C(=O)CN(C)C(=O)[C@H](C)N(C)C(=O)[C@H](CC(C)C)N(C)C1=O [pd229] ([NMeV][NMeF]L[NMeL][NMeA][Sar][NMeF]F[NMeF]TD-Piperidide; lactam N-11) | 0.41
CC[C@H](C)[C@H]1C(=O)N[C@@H](Cc2ccc(O)cc2)C(=O)N(C)CC(=O)N(C)[C@@H](CC(C)C)C(=O)N[C@H](C(=O)N2CCCCC2)CC(=O)N(C)[C@@H](C)C(=O)N[C@@H](C(C)C)C(=O)N(C)[C@@H](CC(C)C)C(=O)N(C)[C@@H](CC(C)C)C(=O)N[C@@H](C)C(=O)N(C)[C@@H](Cc2ccccc2)C(=O)N1C [pd126] ([NMeA]V[NMeL][NMeL]A[NMeF][NMeI]Y[Sar][NMeL]D-Piperidide; lactam N-11) | 0.42
CC(C)C[C@H]1C(=O)N(C)[C@@H](Cc2ccccc2)C(=O)N(C)[C@@H](Cc2ccccc2)C(=O)N[C@@H]([C@@H](C)O)C(=O)N(C)[C@@H](C)C(=O)N(C)[C@@H](Cc2ccccc2)C(=O)N[C@H](C(=O)N2CCCCC2)CC(=O)N(C)[C@@H](C)C(=O)N(C)[C@@H](CC(C)C)C(=O)N(C)[C@@H](Cc2ccccc2)C(=O)N[C@@H](C)C(=O)N1C [pd232] ([NMeA][NMeL][NMeF]A[NMeL][NMeF][NMeF]T[NMeA][NMeF]D-Piperidide; lactam N-11) | 0.19
CC(C)C[C@@H]1NC(=O)[C@H]([C@@H](C)O)NC(=O)[C@H](CC(C)C)N(C)C(=O)C[C@@H](C(=O)N2CCCCC2)NC(=O)[C@H](COC(C)(C)C)NC(=O)[C@H](Cc2ccccc2)NC(=O)[C@H](C)N(C)C(=O)[C@H](Cc2ccccc2)NC(=O)CN(C)C(=O)[C@H](Cc2ccccc2)N(C)C(=O)[C@H](Cc2ccccc2)N(C)C1=O [pd245] ([NMeL]TL[NMeF][NMeF][Sar]F[NMeA]FS(tBu)D-Piperidide; lactam N-11) | 0.019
CC(C)C[C@@H]1NC(=O)[C@H](Cc2ccccc2)C(C)C(=O)[C@H](COC(C)(C)C)NC(=O)[C@H](Cc2ccccc2)N(C)C(=O)[C@H](C)N(C)C(=O)[C@H](CC(C)C)N(C)C(=O)[C@H]2CCCN2C(=O)C[C@@H](C(=O)N2CCCCC2)N(C)C(=O)[C@H](Cc2ccccc2)N(C)C(=O)[C@H]([C@@H](C)O)NC(=O)[C@H](C(C)C)N(C)C1=O (stereo partly drawn) [pd219] ([dP][NMeL][NMeA][NMeF][X18]L[NMeV]T[NMeF][NMeD]-Piperidide; lactam N-10) | 1.1
